Measurements taken from article PMC6832503, “Synthesis of Novel Nicotinic Ligands with Multimodal Action: Targeting Acetylcholine α4β2, Dopamine and Serotonin Transporters” (Molecules, 2019).
Counter-ions that a name gives are not always drawn.

Experiments:
h-SERT = target: T1, h-SERT (Homo sapiens, UniProt P31645); assay: [3H]-paroxetine radioligand binding on h-SERT membranes (HEK293); conditions: for % of Binding [3H]-Paroxetine h-SERT / % radioligand binding at 25 µM: 25 μM compound, 2 nM [3H]-paroxetine, HEK293 h-SERT membranes; for affinity for h-SERT (displacement of [3H]-paroxetine from the central binding site): result in words
T1 construct: purchased Perkin-Elmer RBHSTM400UA; host or cells: HEK293 membranes
Experimental: (§1) To evaluate the affinity (Ki) of our compounds, competitive binding assays in α4β2 nAChR using [^3H]-cytisine as radioligand ([^3H]-Cyt) was measured. Binding experiments were carried out on whole rat brain synaptosomes. To evaluate the affinity on the monoamine transporters SERT and DAT, binding affinity (Ki) was determined using [^3H]-WIN 35,428 ([^3H]-WIN) for h-DAT and [^3H]-paroxetine ([^3H]-parox) for h-SERT as specific radioligands for the corresponding monoamine transporters respectively. Competitive binding studies were carried out on homogenized membranes prepared from the human clonal cell line HEK293 for h-SERT (Perkin Elmer) and CHO-K1 for h-DAT (Perkin Elmer). […].
The cellular background HEK293 containing 400 μL of h-SERT (Code RBHSTM400UA, Perkin-Elmer, Santiago, Chile) was diluted in 12 Eppendorf tubes, containing a storage buffer solution of Tris-HCl 50 mM (pH 7.4), EDTA 0.5 mM, MgCl2 10 mM and 10% sucrose, obtaining a final volume between 260 and 340 μL, which was finally stored at −80 °C [46].
Each Eppendorf tube was incubated with 50 mM Tris HCl buffer (pH 7.4), 120 mM NaCl, 5 mM KCl and the drugs under study using increasing concentrations, in presence of 2 nM of [^3H]-paroxetine (specific activity 23.1 Ci/mmol, Code NET86925UC, Perkin-Elmer, Santiago, Chile) with a final volume of 250 μL [46]. Non-specific binding was determined using […] fluoxetine. After 30 min at 27 °C, the incubation was stopped by rapid filtration on a Whatman GF/C filter preabsorbed in 0.5% polyethylenimine (PEI), washed with cold working buffer solution, 3 × 3mL, filtered, and scintillation liquid was added. The radioactivity was measured by liquid scintillation spectrometry (MicroBeta 2450 microplate counter, PerkinElmer, Santiago, Chile). The data were represented in a bar graph using 25 μM concentration for both, the compound under study and fluoxetine as the non-specific ligand. Each bar represents the mean ± S.E.M obtained in the experiments carried out in triplicates.

α4β2 nAChR = target: T2, α4β2 nAChR (Rattus norvegicus, UniProt P09483+P12390); assay: [3H]-cytisine competitive binding on whole rat brain synaptosomes
T2 construct: the rat complete brain P1 fraction (occupying 2 mg of wet tissue for each assay); from tissue; host or cells: whole rat brain, synaptosome pellet (fraction P1)
Experimental: as §1
Preparation of the synaptosome fraction: the rats were sacrificed by decapitation, and their brain removed without dissecting. Brain tissue was homogenized in 40 volumes using a buffer of 0.32 M sucrose at pH 7.4, containing 1 mM EDTA, 0.1 mM PMSF, and 0.01% of cold and freshly prepared NaN3, through a glass homogenizer and teflon stem. The homogenate was distributed in Eppendorf tubes and centrifuged at 20,000 g for 30 min at 4 °C to produce a synaptosome pellet (fraction P1) which is used for the binding assay. This fraction P1 was subsequently stored at −80 °C.
Binding assay of [^3H]-cytisine in α4β2 nAChR cells: the rat complete brain P1 fraction (occupying 2 mg of wet tissue for each assay) was incubated in 2500 μL of 20 mM HEPES buffer solution at pH 7.4 containing 118 mm NaCl, 4.8 mm KCl, 2.5 mm CaCl2, 200 mm Tris, 0.1 mm PMSF and 0.01% NaN3 with or without the different drugs under study at different concentrations, in the presence of 1 nM of [^3H]-cytisine (specific activity 35.8 Ci/mmol, Code NET1054025UC, Perkin-Elmer, Santiago, Chile) in a final volume of 250 μL. Non-specific binding was determined using 2.5 mM of cytisine. Incubation was performed for 30 min at room temperature and then for 60 min at 4 °C. Incubation was stopped by rapid filtration in Whatman GF/C filter preabsorbed in 0.5% polyethylenimine, which were washed with cold and fresh working buffer 7 times, then dried, and adding scintillation liquid, left for the whole night in Eppendorf tubes in order to measure later the radioactivity by liquid scintillation spectrometry (MicroBeta 2450 microplate counter, PerkinElmer, Santiago, Chile). The data were plotted by non-linear regression variable inhibitor-response dose (Prism 5.01, GraphPad, San Diego, CA, USA) to obtain the IC50 and Ki values of the tested compounds using the Cheng-Prusoff equation.

h-DAT = target: T3, h-DAT (Homo sapiens, UniProt Q01959); assay: [3H]-WIN 35,428 competitive binding on h-DAT membranes (CHO-K1)
T3 construct: purchased Perkin-Elmer RBHDATM400UA; host or cells: CHO-K1 membranes
Experimental: as §1
The cellular background CHO-K1 with 400 μL of h-DAT (Code RBHDATM400UA, Perkin-Elmer, Santiago, Chile) was diluted in 12 Eppendorf tubes, with a storage buffer solution of Tris-HCl 50 mM (pH 7.4), EDTA 0.5 mM, MgCl2 10 mM and 10% sucrose, obtaining a final volume of 260–340 μL stored at −80 °C [46]. Each Eppendorf tube was incubated in 50 mM Tris-HCl buffer solution (pH 7.4), 100 mM NaCl, the drugs under study were using increasing concentrations, with 1 nM of [^3H]-WIN 35,428 (specific activity 82.6 Ci/mmol, Code NET1033025UC, Perkin-Elmer, Santiago, Chile) with a final volume of 250 μL. Non-specific binding was determined using 10 mM methylphenidate.
After 120 min at 4 °C, the incubation was stopped by rapid filtration on a Whatman GF/C filter preabsorbed in 0.5% polyethylenimine (PEI), washed with cold working buffer solution, 3 x 3mL, filtered, and scintillation liquid was added. The radioactivity was measured by liquid scintillation spectrometry (MicroBeta 2450 microplate counter, PerkinElmer, Santiago, Chile). The data were plotted by non-linear regression variable inhibitor-response dose (Prism 5.01, GraphPad, San Diego, CA, USA) to estimate the IC50 and Ki values for the tested compounds using the Cheng-Prusoff equation.

Compound | % radioligand binding at 25 µM (h-SERT; […]) | Ki (µM) α4β2 nAChR (α4β2 nAChR) | Ki (α4β2 nAChR) | Ki (µM) h-DAT (h-DAT) | also measured
CN1CCCC1CCOC(=O)c1ccc2ccccc2c1 (racemic) [Compound 19, (±)-2-(1-Methyl-2-pyrrolidinyl)ethyl 2-naphthoate] | 126 ± 1.9% | N.E | – | – | % of Binding [3H]-Paroxetine h-SERT (h-SERT; […]): increase in the binding; Ki (h-DAT): 44.2 ± 8.12 µM
CN1CCC[C@H]1COC(=O)c1cccc(F)c1 [Compound 2, (S)-(1-Methyl-2-pyrrolidinyl)methyl 3-fluorobenzoate] | 123 ± 1.2% | – | 0.094 ± 0.002 µM | N.E | % of Binding [3H]-Paroxetine h-SERT (h-SERT; […]): increase in the binding
CN1CCC[C@H]1COC(=O)c1ccccc1 [Compound 1, (S)-(1-Methyl-2-pyrrolidinyl)methyl Benzoate] | 86 ± 0.6% | – | 0.023 ± 0.006 µM | N.E | –
Cc1ccc(C(=O)OCCC2CCCN2C)cc1 (racemic) [Compound 12, (±)-2-(1-Methyl-2-pyrrolidinyl)ethyl 4-methylbenzoate] | – | did not display affinity | – | did not display affinity | affinity for h-SERT (displacement of [3H]-paroxetine from the central binding site) (h-SERT): did not display affinity
Cc1ccccc1C(=O)OC[C@@H]1CCCN1C [Compound 5, (S)-(1-Methyl-2-pyrrolidinyl)methyl 2-methylbenzoate] | – | did not display affinity | – | did not display affinity | affinity for h-SERT (displacement of [3H]-paroxetine from the central binding site) (h-SERT): did not display affinity
CN1CCCC1CCOC(=O)c1cccc(Cl)c1 (racemic) [Compound 9, (±)-2-(1-Methyl-2-pyrrolidinyl)ethyl 3-chlorobenzoate] | 108 ± 1.2% | – | 3.46 ± 0.36 µM | N.E | –
CN1CCCC1CCOC(=O)Cc1ccccc1 (racemic) [Compound 16, (±)-2-(-1-Methyl-2-pyrrolidinyl)ethyl 2-phenylacetate] | 92 ± 0.3% | N.E | – | – | Ki (h-DAT): 22.7 ± 7.1 µM
CN1CCCC1CCOC(=O)Cc1ccccc1 (racemic) (as salt: hydrochloride) [Compound 16, (±)-2-(-1-Methyl-2-pyrrolidinyl)ethyl 2-phenylacetate] | – | – | – | – | melting point: 86.7 to 87.4 °C
CN1CCCC1CCOC(=O)Cc1ccc(Cl)c(Cl)c1 (racemic) [Compound 17, (±)-2-(-1-Methyl-2-pyrrolidinyl)ethyl 2-(3,4-dichlorophenyl)acetate] | 78 ± 0.6% | N.E | – | – | Ki (h-DAT): 3.32 ± 0.923 µM
Cc1ccccc1C(=O)OCCC1CCCN1C (racemic) [Compound 11, (±)-2-(1-Methyl-2-pyrrolidinyl)ethyl 2-methylbenzoate] | – | did not display affinity | – | did not display affinity | affinity for h-SERT (displacement of [3H]-paroxetine from the central binding site) (h-SERT): did not display affinity
CN1CCCC1CCOC(=O)c1cccc(F)c1 (racemic) (as salt: hydrochloride) [Compound 8, (±)-2-(1-Methyl-2-pyrrolidinyl)ethyl 3-fluorobenzoate] | – | – | – | – | melting point: 106.8 to 107.5 °C
CN1CCC[C@H]1COC(=O)c1cccc(Cl)c1 [Compound 3, (S)-(1-Methyl-2-pyrrolidinyl)methyl 3-chlorobenzoate] | 87.5 ± 1.5% | – | 0.009 ± 0.001 µM | lacks affinity and N.E | affinity for h-SERT (displacement of [3H]-paroxetine from the central binding site) (h-SERT): lacks affinity
CN1CCC[C@H]1COC(=O)c1ccc2ccccc2c1 [Compound 18, (S)-(1-Methyl-2-pyrrolidinyl)methyl 2-naphthoate] | 117 ± 2.3% | – | 0.12 ± 0.037 µM | – | % of Binding [3H]-Paroxetine h-SERT (h-SERT; […]): increase in the binding; Ki (h-DAT): 99.3 ± 1.41 µM
CN1CCC[C@H]1COC(=O)c1cccc(Cl)c1 (as salt: hydrochloride) [Compound 3, (S)-(1-Methyl-2-pyrrolidinyl)methyl 3-chlorobenzoate] | – | – | – | – | melting point: 120.5 to 121.9 °C
CN1CCC[C@H]1COC(=O)c1cccc(Br)c1 [Compound 4, (S)-(1-Methyl-2-pyrrolidinyl)methyl 3-bromobenzoate] | 137 ± 1.2% | – | 0.132 ± 0.038 µM | N.E | % of Binding [3H]-Paroxetine h-SERT (h-SERT; […]): increase in the binding
CN1CCC[C@H]1COC(=O)Cc1ccc(Cl)c(Cl)c1 (as salt: hydrochloride) | – | – | – | – | melting point: 183.5 to 184.8 °C
CN1CCCC1CCOC(=O)c1cccc(Cl)c1 (racemic) (as salt: hydrochloride) [Compound 9, (±)-2-(1-Methyl-2-pyrrolidinyl)ethyl 3-chlorobenzoate] | – | – | – | – | melting point: 144.7 to 146.2 °C
CN1CCC[C@H]1COC(=O)c1ccc2ccccc2c1 (as salt: hydrochloride) [Compound 18, (S)-(1-Methyl-2-pyrrolidinyl)methyl 2-naphthoate] | – | – | – | – | melting point: 125.5 to 127.1 °C
Cc1ccc(C(=O)OC[C@@H]2CCCN2C)cc1 [Compound 6, (S)-(1-Methyl-2-pyrrolidinyl)methyl 4-methylbenzoate] | – | did not display affinity | – | did not display affinity | affinity for h-SERT (displacement of [3H]-paroxetine from the central binding site) (h-SERT): did not display affinity
CN1CCCC1CCOC(=O)C(c1ccccc1)c1ccccc1 (racemic) [Compound 21, (±)-2-(-1-Methyl-2-pyrrolidinyl)ethyl 2,2-diphenylacetate] | 86.5 ± 1.5% | – | 0.113 ± 0.037 µM | – | Ki (h-DAT): 0.075 ± 0.009 µM
CN1CCCC1CCOC(=O)c1cccc(F)c1 (racemic) [Compound 8, (±)-2-(1-Methyl-2-pyrrolidinyl)ethyl 3-fluorobenzoate] | 140 ± 2% | N.E | – | N.E | % of Binding [3H]-Paroxetine h-SERT (h-SERT; […]): increase in the binding
CN1CCCC1CCOC(=O)c1ccccc1 (racemic) [Compound 7, (±)-2-(1-Methyl-2-pyrrolidinyl)ethyl benzoate] | – | – | 1.79 ± 0.378 µM | no affinity and N.E | % radioligand binding at 25 µM (h-SERT; values above 100 = increased radioligand binding): 100 ± 0.5%; affinity for h-SERT (displacement of [3H]-paroxetine from the central binding site) (h-SERT): no affinity
